Laboratory results published in US7964560B2, “Hepatitis C virus inhibitors” (Bristol-Myers Squibb Company, priority 2008, dated 2011).
Read-outs that look alike come from different tables or passages of the source.

Key:
[1] = biological target: T1, HCV NS3/4A protease complex, BMS strain (UniProt P27958, species not given/STRAIN_BMS); test: FRET peptide assay to monitor HCV NS3/4A proteolytic activity (BMS strain); assay type: biochemical, Hepatitis C virus (genotype 1a); details: Table 2, NS3/4A BMS strain
T1 construct: said of H77 and J4L6S; fused on or other part: three-lysine solubilising tail at the end of NS4A (printed for the H77 and J4L6S constructs; probably the same for BMS)
T1 sequence (P27958 1027-1657, change not shown, one chain of several): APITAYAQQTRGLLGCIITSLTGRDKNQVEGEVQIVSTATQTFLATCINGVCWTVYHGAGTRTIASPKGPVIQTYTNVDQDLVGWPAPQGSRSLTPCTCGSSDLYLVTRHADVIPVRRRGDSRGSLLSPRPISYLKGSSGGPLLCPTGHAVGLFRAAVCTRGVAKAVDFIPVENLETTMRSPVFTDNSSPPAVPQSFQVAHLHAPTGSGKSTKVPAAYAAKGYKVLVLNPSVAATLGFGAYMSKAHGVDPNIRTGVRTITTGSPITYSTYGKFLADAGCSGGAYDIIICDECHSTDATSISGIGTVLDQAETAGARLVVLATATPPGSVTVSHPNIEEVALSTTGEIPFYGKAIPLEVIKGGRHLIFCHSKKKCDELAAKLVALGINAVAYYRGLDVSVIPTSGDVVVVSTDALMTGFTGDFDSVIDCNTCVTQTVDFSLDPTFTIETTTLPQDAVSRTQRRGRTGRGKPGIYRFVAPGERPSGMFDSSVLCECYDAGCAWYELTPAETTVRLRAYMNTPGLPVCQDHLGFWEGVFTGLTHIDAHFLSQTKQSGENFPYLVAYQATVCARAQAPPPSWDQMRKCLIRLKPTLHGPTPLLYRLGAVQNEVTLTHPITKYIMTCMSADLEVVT
From the text: HCV […] protease complexes, derived from the BMS strain, H77 strain or J4L6S strain, were generated, as described below. These purified recombinant proteins were generated for use in a homogeneous assay (see below) to provide an indication of how effective compounds of the present disclosure would be in inhibiting HCV NS3 proteolytic activity.
Serum from an HCV-infected patient was obtained from Dr. T. Wright, San Francisco Hospital. An engineered full-length cDNA (compliment deoxyribonucleic acid) template of the HCV genome (BMS strain) was constructed from DNA fragments obtained by reverse transcription-PCR (RT-PCR) of serum RNA (ribonucleic acid) and using primers selected on the basis of homology between other genotype 1a strains. From the determination of the entire genome sequence, a genotype 1a was assigned to the HCV isolate according to the classification of Simmonds et al. (See Simmonds, P. et al., J. Clin. Microbiol., 31(6), 1493-1503 (1993)). […] The infectious clones, H77 (1a genotype) and J4L6S (1b genotype) were obtained from R. Purcell (NIH) and the sequences are published in GENBANK® (AAB67036, see Yanagi, M. et al., Proc. Natl. Acad. Sci. U.S.A., 94(16):8738-8743 (1997); AF054247, see Yanagi, M. et al., Virology, 244(1):161-172 (1998)).
The H77 and J4L6S strains were used for production of recombinant NS3/4A protease complexes. DNA encoding the recombinant HCV NS3/4A protease complex (amino acids 1027 to 1711) for these strains were manipulated as described by P. Gallinari et al. (see Gallinari, P. et al, Biochemistry, 38(17):5620-5632 (1999)). Briefly, a three-lysine solubilizing tail was added at the 3′-end of the NS4A coding region. The cysteine in the P1 position of the NS4A-NS4B cleavage site (amino acid 1711) was changed to a glycine to avoid the proteolytic cleavage of the lysine tag. Furthermore, a cysteine to serine mutation was introduced by PCR at amino acid position 1454 to prevent the autolytic cleavage in the NS3 helicase domain. The variant DNA fragment was cloned in the pET21b bacterial expression vector (Novagen) and the NS3/4A complex was expressed in Escherichia. coli strain BL21 (DE3) (Invitrogen) following the protocol described by P. Gallinari et al. (see Gallinari, P. et al., J. Virol., 72(8):6758-6769 (1998)) with modifications. Briefly, the NS3/4A protease complex expression was induced with 0.5 millimolar (mM) Isopropyl β-D-1-thiogalactopyranoside (IPTG) for 22 hours (h) at 20° C. A typical fermentation (1 Liter (L)) yielded approximately 10 grams (g) of wet cell paste. The cells were resuspended in lysis buffer (10 mL/g) consisting of 25 mM N-(2-hydroxyethyl)piperazine-N′-(2-ethane sulfonic acid) (HEPES), pH 7.5, 20% glycerol, 500 mM sodium chloride (NaCl), 0.5% Triton X-100, 1 microgram/milliliter (“μg/mL”) lysozyme, 5 mM magnesium chloride (MgCl2), 1 μg/ml DnaseI, 5 mM β-mercaptoethanol (βME), protease inhibitor-ethylenediamine tetraacetic acid (EDTA) free (Roche), homogenized and incubated for 20 minutes (min) at 4° C. The homogenate was sonicated and clarified by ultra-centrifugation at 235000 g for 1 hour (h) at 4° C. Imidazole was added to the supernatant to a final concentration of 15 mM and the pH adjusted to 8.0. The crude protein extract was loaded on a Nickel-Nitrilotriacetic acid (Ni-NTA) column pre-equilibrated with buffer B (25 mM HEPES, pH 8.0, 20% glycerol, 500 mM NaCl, 0.5% Triton X-100, 15 mM imidazole, 5 mM βME). The sample was loaded at a flow rate of 1 mL/min. The column was washed with 15 column volumes of buffer C (same as buffer B except with 0.2% Triton X-100). The protein was eluted with 5 column volumes of buffer D (same as buffer C except with 200 mM Imidazole).
NS3/4A protease complex-containing fractions were pooled and loaded on a desalting column Superdex-S200 pre-equilibrated with buffer D (25 mM HEPES, pH 7.5, 20% glycerol, 300 mM NaCl, 0.2% Triton X-100, 10 mM βME). Sample was loaded at a flow rate of 1 mL/min. […]

[2] = system: HCV replicon in HUH-7 cells; test: HCV replicon FRET assay; assay type: cell-based, Hepatitis C virus (strain 1b); details: Hepatitis C virus, Huh-7, Table 2, HCV replicon, replicon assay format not stated, read-out: EC50
From the text: An HCV replicon whole cell system was established as described by Lohmann, V. et al., Science, 285(5424):110-113 (1999). This system enabled us to evaluate the effects of our HCV Protease compounds on HCV RNA replication. Briefly, using the HCV strain 1b sequence described in the Lohmann paper (Accession number: AJ238799), an HCV cDNA was synthesized by Operon Technologies, Inc. (Alameda, Calif.), and the full-length replicon was then assembled in plasmid pGem9zf(+) (Promega, Madison, Wis.) using standard molecular biology techniques. The replicon consists of (i) the HCV 5′ UTR fused to the first 12 amino acids of the capsid protein, (ii) the neomycin phosphotransferase gene (neo), (iii) the IRES from encephalomyocarditis virus (EMCV), and (iv) HCV NS3 to NS5B genes and the HCV 3′ UTR. Plasmid DNAs were linearized with ScaI and RNA transcripts were synthesized in vitro using the T7 MegaScript transcription kit (Ambion, Austin, Tex.) according to manufacturer's directions. In vitro transcripts of the cDNA were transfected into the human hepatoma cell line, HUH-7. […] Resulting cell lines were characterized for positive and negative strand RNA production and protein production over time.
The HCV replicon FRET assay was developed to monitor the inhibitory effects of compounds described in the disclosure on HCV viral replication. HUH-7 cells, constitutively expressing the HCV replicon, were grown in Dulbecco's Modified Eagle Media (DMEM) (Gibco-BRL) containing 10% Fetal calf serum (FCS) (Sigma) and 1 mg/ml G418 (Gibco-BRL). Cells were seeded the night before (1.5×10^4 cells/well) in 96-well tissue-culture sterile plates. Compound and no compound controls were prepared in DMEM containing 4% FCS, 1:100 Penicillin/Streptomysin (Gibco-BRL), 1:100 L-glutamine and 5% DMSO in the dilution plate (0.5% DMSO final concentration in the assay). Compound/DMSO mixes were added to the cells and incubated for 4 days at 37° C. After 4 days, cells were first assessed for cytotoxicity using alamar Blue (Trek Diagnostic Systems) for a CC50 reading. The toxicity of compound (CC50) was determined by adding 1/10th volume of alamar Blue to the media incubating the cells. After 4 h, the fluorescence signal from each well was read, with an excitation wavelength at 530 nm and an emission wavelength of 580 nm, using the CYTOFLUOR® Series 4000 (Perspective Biosystems). Plates were then rinsed thoroughly with Phosphate-Buffered Saline (PBS) (3 times 150 μl). The cells were lysed with 25 μl of a lysis assay reagent containing an HCV protease substrate (5× cell Luciferase cell culture lysis reagent (PROMEGA® #E153A) diluted to 1× with distilled water, NaCl added to 150 mM final, the FRET peptide substrate (as described for the enzyme assay above) diluted to 10 μM final from a 2 mM stock in 100% DMSO. The plate was then placed into the CYTOFLUOR® 4000 instrument which had been set to 340 nm excitation/490 nm emission, automatic mode for 21 cycles and the plate read in a kinetic mode. EC50 determinations were carried out as described for the IC50 determinations.

## C=C[C@@H]1C[C@]1(NC(=O)[C@@H]1C[C@](c2ccc(-c3ccccc3)cc2)([S+]([O-])CCCC)CN1C(=O)[C@@H](NC(=O)OC(C)(C)C)C(C)(C)C)C(=O)NS(=O)(=O)C1CC1 (single isomer, unassigned) [Example 2]
[1]; activity range
  IC50: 0.001 to 0.02 µM
[2]; activity range
  EC50: 0.006 to 0.1 µM

## C=C[C@@H]1C[C@]1(NC(=O)[C@@H]1C[C@@](SC(C)C)(c2ccc(-c3ccccc3)cc2)CN1C(=O)[C@@H](NC(=O)OC(C)(C)C(F)(F)F)C(C)(C)C)C(=O)NS(=O)(=O)C1CC1 [Example 10, 1,1,1-trifluoro-2-methylpropan-2-yl (S)-1-((2S,4R)-4-(biphenyl-4-yl)-2-((1R,2S)-1-(cyclopropylsulfonylcarbamoyl)-2-vinylcyclopropylcarbamoyl)-4-(isopropylthio)pyrrolidin-1-yl)-3,3-dimethyl-1-oxobutan-2-ylcarbamate]
[1]; activity range
  IC50: 0.001 to 0.02 µM
[2]; activity range
  EC50: 0.006 to 0.1 µM

## C=C[C@@H]1C[C@]1(NC(=O)[C@@H]1C[C@@](SC(C)C)(c2ccc(-c3ccccc3)cc2)CN1C(=O)[C@@H](NC(=O)OC(C)(C)C)C(C)(C)C)C(=O)NS(=O)(=O)C1CC1 [Example 9, tert-butyl (S)-1-((2S,4R)-4-(biphenyl-4-yl)-2-((1R,2S)-1-(cyclopropylsulfonylcarbamoyl)-2-vinylcyclopropylcarbamoyl)-4-(isopropylthio)pyrrolidin-1-yl)-3,3-dimethyl-1-oxobutan-2-ylcarbamate]
[1]; activity range
  IC50: 0.001 to 0.02 µM
[2]; activity range
  EC50: 0.006 to 0.1 µM

## C=C[C@@H]1C[C@]1(NC(=O)[C@@H]1C[C@@](SC(C)C)(c2ccc(-c3ccccc3)cc2)CN1C(=O)[C@@H](NC(=O)OC1(C)CCCC1)C(C)(C)C)C(=O)NS(=O)(=O)C1CC1 [Example 11, 1-methylcyclopentyl (S)-1-((2S,4R)-4-(biphenyl-4-yl)-2-((1R,2S)-1-(cyclopropylsulfonylcarbamoyl)-2-vinylcyclopropylcarbamoyl)-4-(isopropylthio)pyrrolidin-1-yl)-3,3-dimethyl-1-oxobutan-2-ylcarbamate]
[1]; activity range
  IC50: 0.001 to 0.02 µM
[2]; activity range
  EC50: 0.006 to 0.1 µM

## C=C[C@@H]1C[C@]1(NC(=O)[C@@H]1C[C@@](SC)(c2ccc(-c3ccccc3)cc2)CN1C(=O)[C@@H](NC(=O)OC(C)(C)C)C(C)(C)C)C(=O)NS(=O)(=O)C1CC1 [Example 8, tert-butyl (S)-1-((2S,4R)-4-(biphenyl-4-yl)-2-((1R,2S)-1-(cyclopropylsulfonylcarbamoyl)-2-vinylcyclopropylcarbamoyl)-4-(methylthio)pyrrolidin-1-yl)-3,3-dimethyl-1-oxobutan-2-ylcarbamate]
[1]; activity range
  IC50: 0.001 to 0.02 µM
[2]; activity range
  EC50: 0.006 to 0.1 µM

## C=CCS[C@@]1(c2ccc(-c3ccccc3)cc2)C[C@@H](C(=O)N[C@]2(C(=O)NS(=O)(=O)C3CC3)C[C@H]2C=C)N(C(=O)[C@@H](NC(=O)OC(C)(C)C)C(C)(C)C)C1 [Example 12, tert-butyl (S)-1-((2S,4R)-4-(allylthio)-4-(biphenyl-4-yl)-2-((1R,2S)-1-(cyclopropylsulfonylcarbamoyl)-2-vinylcyclopropylcarbamoyl)pyrrolidin-1-yl)-3,3-dimethyl-1-oxobutan-2-ylcarbamate]
[1]; activity range
  IC50: 0.001 to 0.02 µM
[2]; activity range
  EC50: 0.006 to 0.1 µM

## CCCCS[C@@]1(c2ccc(-c3ccccc3)cc2)C[C@@H](C(=O)N[C@]2(C(=O)NS(=O)(=O)C3CC3)C[C@H]2C(F)F)N(C(=O)[C@@H](NC(=O)OC(C)(C)C)C(C)(C)C)C1 [Example 6, tert-butyl (S)-1-((2S,4R)-4-(biphenyl-4-yl)-4-(butylthio)-2-((1R,2R)-1-(cyclopropylsulfonylcarbamoyl)-2-(difluoromethyl)cyclopropylcarbamoyl)pyrrolidin-1-yl)-3,3-dimethyl-1-oxobutan-2-ylcarbamate]
[1]; numeric values
  IC50: 0.002 µM
[2]; numeric values
  EC50: 0.018 to 0.036 µM

## CCCCS[C@@]1(c2ccc(-c3ccccc3)cc2)C[C@@H](C(=O)N[C@]2(C(=O)NS(=O)(=O)C3CC3)C[C@H]2C=C(F)F)N(C(=O)[C@@H](NC(=O)OC(C)(C)C)C(C)(C)C)C1 [Example 7, tert-butyl (S)-1-((2S,4R)-4-(biphenyl-4-yl)-4-(butylthio)-2-((1R,2S)-1-(cyclopropylsulfonylcarbamoyl)-2-(2,2-difluorovinyl)cyclopropylcarbamoyl)pyrrolidin-1-yl)-3,3-dimethyl-1-oxobutan-2-ylcarbamate]
[1]; activity range
  IC50: 0.001 to 0.02 µM
[2]; activity range
  EC50: 0.006 to 0.1 µM

## CCCCS[C@@]1(c2ccc(-c3ccccc3)cc2)C[C@@H](C(=O)N[C@]2(C(=O)NS(=O)(=O)C3CC3)C[C@H]2C2CC2)N(C(=O)[C@@H](NC(=O)OC(C)(C)C)C(C)(C)C)C1 [Example 5, tert-butyl (S)-1-((2S,4R)-4-(biphenyl-4-yl)-4-(butylthio)-2-((1S,2R)-2-(cyclopropylsulfonylcarbamoyl)bi(cyclopropan)-2-ylcarbamoyl)pyrrolidin-1-yl)-3,3-dimethyl-1-oxobutan-2-ylcarbamate]
[1]; activity range
  IC50: 0.001 to 0.02 µM
[2]; activity range
  EC50: 0.006 to 0.1 µM
